Drawing on patent publication US20240269304A1, “BCL-XL INHIBITOR ANTIBODY-DRUG CONJUGATES AND METHODS OF USE THEREOF” (Novartis AG, priority 2020, published 2024), this text covers IC50 for 15 molecules.

Read-outs that look alike come from different tables or passages of the source.

For the assay, the system named is H1650 cells. The assay can be described thus: CellTiterGlo (CTG) cell viability, 3D, 120 h, H1650 (Example 8). It counts as cell-based, human. The settings on record: Homo sapiens, NCI-H1650, H1650 3D. How it is done:
H1650 cells were cultivated in RPMI supplemented with 10% heat inactivated fetal bovine serum, penicillin (100 IU/ml), streptomycin (100 μg/ml) and L-glutamine (2 mM). Cell lines were cultured at 37° C. in a humidified atmosphere containing 5% 002. Cells were seeded in 96 microwell round bottom plates (96 microwell Low attachment plates , Costar reference 7007) and exposed to the payloads or ADCs for 120 h (serially diluted; 9 concentrations each, duplicates). Effects of payloads or ADCs on cell viability were assessed after 5 days of incubation at 37° C./5% CO2 by quantification of cellular ATP levels using CellTiterGlo at 75 μL reagent/well. All the conditions were tested in duplicates. Luminescence was quantified on a multipurpose plate reader. IC50S were calculated using standard four-parametric curve fitting. […] Each experiment was performed at least twice, with results being reproducible.

Where [1] appears, read: experiment n1, read-out: H1650 3D CTG IC50 n1.
Where [2] appears, read: experiment n2, read-out: H1650 3D CTG IC50 n2.
Setting [3] is: mean of n1 and n2, read-out: H1650 3D CTG IC50 Mean of n1 and n2.

`Cc1ccc2sc(Nc3nnc4c(c3C)CCCN4c3ccc(-c4cnn(C[C@]56C[C@]7(C)C[C@](C)(C5)C[C@@](OCCN5CCCC5)(C7)C6)c4C)c(C(=O)O)n3)nc2c1` [P42, 3-[1-[[3,5-dimethyl-7-(2-pyrrolidin-1-ylethoxy)-1-adamantyl]methyl]-5-methyl-pyrazol-4-yl]-6-[4-methyl-3-[(5-methyl-1,3-benzothiazol-2-yl)amino]-6,7-dihydro-5H-pyrido[2,3-c]pyridazin-8-yl]pyridine-2-carboxylic acid]: the 50% inhibitory concentration (IC50) (commonly the concentration at which inhibition is half-maximal) was 9.4 nM under setting [1], 12.9 nM under setting [2] and 11.2 nM under setting [3].
For `COc1ccc2sc(Nc3nnc4c(c3C)CCCN4c3ccc(-c4cnn(C[C@]56C[C@]7(C)C[C@](C)(C5)C[C@@](OCCN5CCCC5)(C7)C6)c4C)c(C(=O)O)n3)nc2c1` [P43, 3-[1-[[3,5-dimethyl-7-(2-pyrrolidin-1-ylethoxy)-1-adamantyl]methyl]-5-methyl-pyrazol-4-yl]-6-[3-[(5-methoxy-1,3-benzothiazol-2-yl)amino]-4-methyl-6,7-dihydro-5H-pyrido[2,3-c]pyridazin-8-yl]pyridine-2-carboxylic acid], the IC50 by setting is: under setting [1], 0.53 nM; under setting [2], 0.5 nM; under setting [3], 0.52 nM.
In the same order, the values of `Cc1c(Nc2nc3ccccc3s2)nnc2c1CCCN2c1ccc(-c2cnn(CC34CC5(C)CC(C)(C3)CC(OCCNCC(=O)O)(C5)C4)c2C)c(C(=O)O)n1` [P47, 6-[3-(1,3-benzothiazol-2-ylamino)-4-methyl-6,7-dihydro-5H-pyrido[2,3-c]pyridazin-8-yl]-3-[1-[[3-[2-(carboxymethylamino)ethoxy]-5,7-dimethyl-1-adamantyl]methyl]-5-methyl-pyrazol-4-yl]pyridine-2-carboxylic acid] are 6.54 nM, 7.35 nM and 6.95 nM.
Take `Cc1c(Nc2nc3ccccc3s2)nnc2c1CCCN2c1ccc(-c2cnn(CC34CC5(C)CC(C)(C3)CC(OCCN(C)CC(=O)O)(C5)C4)c2C)c(C(=O)O)n1` [P48, 6-[3-(1,3-benzothiazol-2-ylamino)-4-methyl-6,7-dihydro-5H-pyrido[2,3-c]pyridazin-8-yl]-3-[1-[[3-[2-[carboxymethyl(methyl)amino]ethoxy]-5,7-dimethyl-1-adamantyl]methyl]-5-methyl-pyrazol-4-yl]pyridine-2-carboxylic acid]: the half-inhibitory concentration (IC50) under setting [1] came out at 2.27 nM, the IC50 under setting [2] stood at 2.79 nM and the half-inhibitory concentration (IC50) under setting [3] was found to be 2.53 nM.
The like results for `Cc1c(Nc2nc3ccccc3s2)nnc2c1CCCN2c1ccc(-c2cnn(CC34CC5(C)CC(C)(CC(CCCN(C)CCO)(C5)C3)C4)c2C)c(C(=O)O)n1` [P49, 6-[3-(1,3-benzothiazol-2-ylamino)-4-methyl-6,7-dihydro-5H-pyrido[2,3-c]pyridazin-8-yl]-3-[1-[[3-[3-[2-hydroxyethyl(methyl)amino]propyl]-5,7-dimethyl-1-adamantyl]methyl]-5-methyl-pyrazol-4-yl]pyridine-2-carboxylic acid] were, in that order, 1.3 nM, 1.12 nM and 1.21 nM.
In the same order, the values of `COCCCN(C)CCCC12CC3(C)CC(C)(C1)CC(Cn1ncc(-c4ccc(N5CCCc6c5nnc(Nc5nc7ccccc7s5)c6C)nc4C(=O)O)c1C)(C3)C2` [P50, 6-[3-(1,3-benzothiazol-2-ylamino)-4-methyl-6,7-dihydro-5H-pyrido[2,3-c]pyridazin-8-yl]-3-[1-[[3-[3-[3-methoxypropyl(methyl)amino]propyl]-5,7-dimethyl-1-adamantyl]methyl]-5-methyl-pyrazol-4-yl]pyridine-2-carboxylic acid] are 0.55 nM, 0.21 nM and 0.38 nM.
On to `COCCCNCCCC12CC3(C)CC(C)(C1)CC(Cn1ncc(-c4ccc(N5CCCc6c5nnc(Nc5nc7ccccc7s5)c6C)nc4C(=O)O)c1C)(C3)C2` [P51, 6-[3-(1,3-benzothiazol-2-ylamino)-4-methyl-6,7-dihydro-5H-pyrido[2,3-c]pyridazin-8-yl]-3-[1-[[3-[3-(3-methoxypropylamino)propyl]-5,7-dimethyl-1-adamantyl]methyl]-5-methyl-pyrazol-4-yl]pyridine-2-carboxylic acid], for which the concentration for half-maximal inhibition (IC50) is, setting by setting: under setting [1], 1.97 nM; under setting [2], 2.83 nM; under setting [3], 2.4 nM.
In the same order, the values of `Cc1c(Nc2nc3ccccc3s2)nnc2c1CCCN2c1ccc(-c2cnn(CC34CC5(C)CC(C)(CC(CCCN6CCCCCC6)(C5)C3)C4)c2C)c(C(=O)O)n1` [P52, 3-[1-[[3-[3-(azepan-1-yl)propyl]-5,7-dimethyl-1-adamantyl]methyl]-5-methyl-pyrazol-4-yl]-6-[3-(1,3-benzothiazol-2-ylamino)-4-methyl-6,7-dihydro-5H-pyrido[2,3-c]pyridazin-8-yl]pyridine-2-carboxylic acid] are 0.73 nM, 0.38 nM and 0.555 nM.
The like results for `Cc1c(Nc2nc3ccccc3s2)nnc2c1CCCN2c1ccc(-c2cnn(CC34CC5(C)CC(C)(CC(CCCNCC(=O)O)(C5)C3)C4)c2C)c(C(=O)O)n1` [P53, 6-[3-(1,3-benzothiazol-2-ylamino)-4-methyl-6,7-dihydro-5H-pyrido[2,3-c]pyridazin-8-yl]-3-[1-[[3-[3-(carboxymethylamino)propyl]-5,7-dimethyl-1-adamantyl]methyl]-5-methyl-pyrazol-4-yl]pyridine-2-carboxylic acid] were, in that order, 37.7 nM, 35 nM and 36.4 nM.
The like results for `Cc1c(Nc2nc3ccccc3s2)nnc2c1CCCN2c1ccc(-c2cnn(CC34CC5(C)CC(C)(CC(CCCNCCC(=O)O)(C5)C3)C4)c2C)c(C(=O)O)n1` [P54, 6-[3-(1,3-benzothiazol-2-ylamino)-4-methyl-6,7-dihydro-5H-pyrido[2,3-c]pyridazin-8-yl]-3-[1-[[3-[3-(2-carboxyethylamino)propyl]-5,7-dimethyl-1-adamantyl]methyl]-5-methyl-pyrazol-4-yl]pyridine-2-carboxylic acid] were, in that order, 10.7 nM, 11.8 nM and 11.2 nM.
For `Cc1c(Nc2nc3ccccc3s2)nnc2c1CCCN2c1ccc(-c2cnn(CC34CC5(C)CC(C)(CC(CCCN(C)CC(=O)O)(C5)C3)C4)c2C)c(C(=O)O)n1` [P55, 6-[3-(1,3-benzothiazol-2-ylamino)-4-methyl-6,7-dihydro-5H-pyrido[2,3-c]pyridazin-8-yl]-3-[1-[[3-[3-[carboxymethyl(methyl)amino]propyl]-5,7-dimethyl-1-adamantyl]methyl]-5-methyl-pyrazol-4-yl]pyridine-2-carboxylic acid], the half-inhibitory concentration (IC50) turned out to be 6.15 nM under setting [1], 6.88 nM under setting [2] and 6.51 nM under setting [3].
Consider `Cc1c(Nc2nc3ccccc3s2)nnc2c1CCCN2c1ccc(-c2cnn(CC34CC5(C)CC(C)(CC(CCCN(C)CCC(=O)O)(C5)C3)C4)c2C)c(C(=O)O)n1` [P56, 6-[3-(1,3-benzothiazol-2-ylamino)-4-methyl-6,7-dihydro-5H-pyrido[2,3-c]pyridazin-8-yl]-3-[1-[[3-[3-[2-carboxyethyl(methyl)amino]propyl]-5,7-dimethyl-1-adamantyl]methyl]-5-methyl-pyrazol-4-yl]pyridine-2-carboxylic acid], for which the IC50 is, setting by setting: under setting [1], 13.9 nM; under setting [2], 2.95 nM; under setting [3], 8.43 nM.
The like results for `Cc1c(Nc2nc3ccccc3s2)nnc2c1CCCN2c1ccc(-c2cnn(CC34CC5(C)CC(C)(C3)CC(OCCN(C)CCCC(=O)O)(C5)C4)c2C)c(C(=O)O)n1` [P57, 6-[3-(1,3-benzothiazol-2-ylamino)-4-methyl-6,7-dihydro-5H-pyrido[2,3-c]pyridazin-8-yl]-3-[1-[[3-[2-[3-carboxypropyl(methyl)amino]ethoxy]-5,7-dimethyl-1-adamantyl]methyl]-5-methyl-pyrazol-4-yl]pyridine-2-carboxylic acid] were, in that order, 6.75 nM, 14.3 nM and 10.5 nM.
The like results for `Cc1c(Nc2nc3ccccc3s2)nnc2c1CCCN2c1ccc(-c2cnn(CC34CC5(C)CC(C)(CC(CCCN(C)CCCC(=O)O)(C5)C3)C4)c2C)c(C(=O)O)n1` [P58, 6-[3-(1,3-benzothiazol-2-ylamino)-4-methyl-6,7-dihydro-5H-pyrido[2,3-c]pyridazin-8-yl]-3-[1-[[3-[3-[3-carboxypropyl(methyl)amino]propyl]-5,7-dimethyl-1-adamantyl]methyl]-5-methyl-pyrazol-4-yl]pyridine-2-carboxylic acid] were, in that order, 5.73 nM, 9.08 nM and 7.41 nM.
On to `Cc1c(Nc2nc3ccccc3s2)nnc2c1CCCN2c1ccc(-c2cnn(CC34CC5(C)CC(C)(C3)CC(OCCN(C)CCCO)(C5)C4)c2C)c(C(=O)O)n1` [P62, 6-[3-(1,3-benzothiazol-2-ylamino)-4-methyl-6,7-dihydro-5H-pyrido[2,3-c]pyridazin-8-yl]-3-[1-[[3-[2-[3-hydroxypropyl(methyl)amino]ethoxy]-5,7-dimethyl-1-adamantyl]methyl]-5-methyl-pyrazol-4-yl]pyridine-2-carboxylic acid], for which the IC50 amounted to 0.52 nM under setting [1] and 0.52 nM under setting [3].
